Drawing on patent US20040248919A1, “Fluorinated trienes and their use as rxr modulators” (priority 2001, published 2004), this text covers Emax and IC50 for five compounds.

Read-outs that look alike come from different tables or passages of the source.

The target of the experiment is T1, RXRα:RXRα homodimer (Homo sapiens, UniProt P19793).
T1 sequence (P19793 1-462): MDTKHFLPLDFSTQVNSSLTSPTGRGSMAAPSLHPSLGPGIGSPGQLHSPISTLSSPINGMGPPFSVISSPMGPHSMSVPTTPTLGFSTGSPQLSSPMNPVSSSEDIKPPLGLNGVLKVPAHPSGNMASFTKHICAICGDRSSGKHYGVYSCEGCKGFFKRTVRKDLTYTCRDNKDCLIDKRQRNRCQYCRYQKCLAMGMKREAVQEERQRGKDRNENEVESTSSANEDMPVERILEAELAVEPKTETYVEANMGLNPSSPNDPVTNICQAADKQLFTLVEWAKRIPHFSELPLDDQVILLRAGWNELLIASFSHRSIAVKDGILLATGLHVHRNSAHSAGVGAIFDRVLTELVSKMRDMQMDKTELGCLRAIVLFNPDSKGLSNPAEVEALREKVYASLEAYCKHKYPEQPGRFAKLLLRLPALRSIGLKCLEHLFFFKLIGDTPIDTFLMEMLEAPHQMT
In words: RXR homodimer co-transfection assay (antagonist) in CV-1 cells. It counts as cell-based. The settings on record: for IC50: in the presence of 3.2×10^−8 M LGD1069, read-out: RXR Antagonist CTF IC50. The text has this: In the co-transfection assay, cloned cDNA for one or more IRs (e.g. human RARα, RXRα, or PPARγ), alone or in combination (i.e. for heterodimer assays) under the control of a constitutive promoter (e.g., the SV 40, RSV or CMV promoter) is introduced by transfection (a procedure to introduce exogenous genes into cells) into a background cell substantially devoid of endogenous IRs. These introduced gene(s) direct the recipient cells to make the IR protein(s) of interest. A further gene is also introduced (co-transfected) into the same cells in conjunction with the IR gene(s). This further gene, comprising the cDNA for a reporter protein, such as firefly luciferase (LUC), controlled by an appropriate hormone responsive promoter containing a hormone response element (HRE). This reporter plasmid functions as a reporter for the transcriptional-modulating activity of the target IR(s). Thus, the reporter acts as a surrogate for the products (mRNA then protein) normally expressed by a gene under control of the target receptor(s) and their native hormone(s). The co-transfection assay can detect small molecule agonists or antagonists, including partial agonists and antagonist, of target IRs. Exposing the transfected cells to an agonist ligand compound increases reporter activity in the transfected cells. This activity can be conveniently measured, e.g., by increasing luciferase production and enzymatic activity, which reflects compound-dependent, IR-mediated increases in reporter transcription. […] Increasing concentrations of an antagonist will decrease the reporter signal (e.g., luciferase production). The co-transfection assay is therefore useful to detect both agonists and antagonists of specific IRs. Furthermore, it determines not only whether a compound interacts with a particular IR, but whether this interaction mimics (agonizes) or blocks (antagonizes) the effects of native or synthetic regulatory molecules on target gene expression, as well as the specificity and strength of this interaction. […] To determine agonist and antagonist activity of the modulator compounds of the present invention, the CV-1 cells were transiently transfected by calcium phosphate coprecipitation according to the procedure of Berger et al., 41 J. Steroid Biochem. Mol. Biol., 733 (1992) with the receptor expressing plasmid […] et al., 345 Nature, 224 (1990), the disclosures of which are herein incorporated by reference at a concentration of 10 ng/well. The receptor expression plasmid was cotransfected along with a reporter plasmid at 50 ng/well, the internal control plasmid pRS-β-Gal at 50 ng/well and filler DNA, pGEM, at 90 ng/well. The reporter plasmid […], which contains an RXRE (retinoid X receptor response element, as described in Mangelsdorf et al., 66 Cell, 555 (1991), the disclosure of which is herein incorporated by reference, was used in transfections for the RXR homodimer assay. This reporter plasmid contains the cDNA for firefly luciferase (LUC) under the control of a promoter containing the RXR response element. As noted above, pRS-β-Gal, coding for constitutive expression of E. coli β-galactosidase (β-Gal), was included as an internal control for evaluation of transfection efficiency and compound toxicity. Six hours after transfection, media was removed and the cells were washed with phosphate-buffered saline (PBS). Media containing compounds of the present invention in concentrations ranging from 10^-10 to 10^-5 M were added to the cells. […] Ligand Pharmaceuticals, Inc.), compounds with known agonist activity on RXRs, were added at similar concentrations to provide a reference point for analysis of the agonist activity of the compounds of the present invention. […] Ligand Pharmaceuticals, Inc.). Retinoid purity was established as greater than 99% by reverse phase high-performance liquid chromatography. Retinoids were dissolved in dimethylsulfoxide for use in the transcriptional activation assays. Two to three replicates were used for each sample. […]

[1] abbreviates: CV-1 cells, antagonist efficacy as % of maximal inhibition, read-out: RXR Antagonist CTF % Efficacy.

In the case of `CCOc1c(\C(=C/C=C/C(C)=C/C(=O)O)C(F)(F)F)cc(C(C)(C)C)cc1C(C)(C)C` [Example 5, (2E,4E,6E)-3-methyl-7-(2-ethoxy-3,5-di-tert-butylphenyl)-8,8,8-trifluoroocta-2,4,6-trienoic acid], the Emax (CV-1, read-out: RXR Antagonist CTF % Efficacy) worked out at 30%. The IC50 (CV-1 cells) was found to be 0.038 µM.
Regarding `CCCCOc1c(\C(C)=C/C=C/C(=C\C(=O)O)C(F)(F)F)cc(C(C)C)cc1C(C)C` [Example 4, (2E,4E,6Z)-7-(2-Butoxy-3,5-diisopropylphenyl)-3-trifluoromethyl-octa-2,4,6-trienoic acid], the Emax under setting [1] stood at 29%.
As for `C/C(=C/C(F)=C/C(C)=C/C(=O)O)c1cc(C(C)(C)C)cc(C(C)(C)C)c1OCC(F)F` [Example 2, 7-[3,5-Di-tert-butyl-2-(2,2-difluoroethoxy)-phenyl]-5-fluoro-3-methyl-octa-2,4,6-trienoic acid], the Emax under setting [1] came out at 100%. Further, the IC50 (CV-1 cells) was 8.71 µM.
Consider `CCCCOc1c(\C(C)=C/C=C/C(=C/C(=O)O)C(F)(F)F)cc(C(C)C)cc1C(C)C` [Example 3, (2Z,4E,6Z)-7-(2-Butoxy-3,5-diisopropylphenyl)-3-trifluoromethyl-octa-2,4,6-trienoic acid], for which the Emax under setting [1] was determined as 83%. The IC50 (CV-1 cells) was determined as 0.921 µM.
Consider `C/C(=C/C=C(F)/C(C)=C/C(=O)O)c1cc(C(C)(C)C)cc(C(C)(C)C)c1OCC(F)F` [Example 1, 7-[3,5-di-tert-butyl-2-(2,2-difluoroethoxy)-phenyl]4-fluoro-3-methyl-octa-2,4,6-trienoic acid], for which the Emax under setting [1] turned out to be 100%. Moreover, under “CV-1 cells”, the IC50 amounted to 4.84 µM.

In general, IC50 refers to the concentration that inhibits the measured activity by half.
